The target in test [1] is Kappa-type opioid receptor (Homo sapiens, UniProt P41145).
Test [2] addresses T1, Alpha-2C adrenergic receptor (Homo sapiens, UniProt P18825).
T1 sequence (P18825 whole entry): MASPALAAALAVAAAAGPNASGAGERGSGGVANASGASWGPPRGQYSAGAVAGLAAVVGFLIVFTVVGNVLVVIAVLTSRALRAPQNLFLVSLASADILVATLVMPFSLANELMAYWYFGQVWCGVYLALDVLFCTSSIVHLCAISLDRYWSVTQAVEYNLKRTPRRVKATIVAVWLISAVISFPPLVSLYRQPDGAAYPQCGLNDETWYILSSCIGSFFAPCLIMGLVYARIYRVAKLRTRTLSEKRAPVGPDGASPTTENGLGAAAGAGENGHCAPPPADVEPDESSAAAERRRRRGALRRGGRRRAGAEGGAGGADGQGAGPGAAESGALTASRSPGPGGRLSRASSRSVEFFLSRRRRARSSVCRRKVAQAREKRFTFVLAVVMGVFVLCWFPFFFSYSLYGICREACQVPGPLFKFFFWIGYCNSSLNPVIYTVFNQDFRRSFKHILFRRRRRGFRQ
Type of test: functional.

Test [3] deals with T2, Endothelin-1 receptor (Homo sapiens, UniProt P25101).
T2 sequence (P25101 whole entry): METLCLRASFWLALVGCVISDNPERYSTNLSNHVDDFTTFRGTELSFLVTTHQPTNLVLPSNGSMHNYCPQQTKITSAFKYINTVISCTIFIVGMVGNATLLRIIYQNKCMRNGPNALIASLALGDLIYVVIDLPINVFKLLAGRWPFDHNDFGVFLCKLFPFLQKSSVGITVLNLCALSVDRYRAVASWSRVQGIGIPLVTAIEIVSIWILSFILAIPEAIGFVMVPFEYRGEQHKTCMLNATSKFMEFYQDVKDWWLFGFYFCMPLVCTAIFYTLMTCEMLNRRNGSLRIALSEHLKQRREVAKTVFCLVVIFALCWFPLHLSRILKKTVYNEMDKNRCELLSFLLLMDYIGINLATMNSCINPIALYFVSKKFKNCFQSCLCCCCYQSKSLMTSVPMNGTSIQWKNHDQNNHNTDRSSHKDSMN

Test [4] addresses Bile salt export pump (Homo sapiens, UniProt O95342). The class given is functional.
In test [5] the target is Gamma-aminobutyric acid receptor subunit alpha-1 (Rattus norvegicus, UniProt P62813).
Test [6] concerns the target T3, Neuropeptide Y receptor type 1 (Homo sapiens, UniProt P25929).
T3 sequence (P25929 whole entry): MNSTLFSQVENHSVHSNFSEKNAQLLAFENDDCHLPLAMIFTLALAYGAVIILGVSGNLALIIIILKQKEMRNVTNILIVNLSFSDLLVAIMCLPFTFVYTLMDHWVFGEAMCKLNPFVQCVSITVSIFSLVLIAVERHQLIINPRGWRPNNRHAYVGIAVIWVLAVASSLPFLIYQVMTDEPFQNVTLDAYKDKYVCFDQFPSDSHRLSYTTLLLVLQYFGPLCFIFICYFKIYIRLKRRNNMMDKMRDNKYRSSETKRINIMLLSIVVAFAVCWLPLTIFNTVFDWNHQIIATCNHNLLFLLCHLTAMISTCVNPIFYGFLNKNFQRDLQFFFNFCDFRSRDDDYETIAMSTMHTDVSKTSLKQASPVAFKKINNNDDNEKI

Test [7] deals with T4, Gastrin/cholecystokinin type B receptor (Homo sapiens, UniProt P32239).
T4 sequence (P32239 whole entry): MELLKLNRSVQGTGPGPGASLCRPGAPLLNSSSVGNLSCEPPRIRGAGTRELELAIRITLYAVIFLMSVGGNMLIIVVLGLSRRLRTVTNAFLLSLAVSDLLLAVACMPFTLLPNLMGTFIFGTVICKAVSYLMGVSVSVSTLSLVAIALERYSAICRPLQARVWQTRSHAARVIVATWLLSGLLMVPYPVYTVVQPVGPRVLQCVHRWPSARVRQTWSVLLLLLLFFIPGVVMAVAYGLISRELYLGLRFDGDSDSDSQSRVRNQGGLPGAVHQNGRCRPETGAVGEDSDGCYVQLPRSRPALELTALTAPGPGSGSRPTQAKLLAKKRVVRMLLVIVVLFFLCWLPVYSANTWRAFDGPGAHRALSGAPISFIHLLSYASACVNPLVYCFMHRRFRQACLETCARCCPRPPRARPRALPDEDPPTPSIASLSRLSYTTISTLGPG

Test [8] deals with T5, Alpha-2A adrenergic receptor (Homo sapiens, UniProt P08913).
T5 sequence (P08913 whole entry): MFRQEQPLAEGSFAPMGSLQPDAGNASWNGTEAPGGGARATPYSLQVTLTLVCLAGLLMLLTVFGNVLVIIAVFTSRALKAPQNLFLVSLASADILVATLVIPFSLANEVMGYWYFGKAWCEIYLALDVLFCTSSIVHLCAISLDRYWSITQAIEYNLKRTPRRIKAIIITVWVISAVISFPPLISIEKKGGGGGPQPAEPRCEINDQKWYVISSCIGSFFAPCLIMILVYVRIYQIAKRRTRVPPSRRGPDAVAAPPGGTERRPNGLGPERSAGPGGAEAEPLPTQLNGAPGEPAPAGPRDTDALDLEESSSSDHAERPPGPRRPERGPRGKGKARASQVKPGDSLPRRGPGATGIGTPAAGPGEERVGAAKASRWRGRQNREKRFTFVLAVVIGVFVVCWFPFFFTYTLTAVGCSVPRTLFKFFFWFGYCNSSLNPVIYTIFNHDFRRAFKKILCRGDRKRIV
The class given is functional, cell-based.

In test [9] the target is 3',5'-cyclic-AMP phosphodiesterase 4D (Homo sapiens, UniProt Q08499). Type of test: functional.

By AC50 is commonly meant the concentration giving half of the maximal activity seen.
Further: assay procedure not described here.

Bile salt export pump, sequence (O95342 whole entry): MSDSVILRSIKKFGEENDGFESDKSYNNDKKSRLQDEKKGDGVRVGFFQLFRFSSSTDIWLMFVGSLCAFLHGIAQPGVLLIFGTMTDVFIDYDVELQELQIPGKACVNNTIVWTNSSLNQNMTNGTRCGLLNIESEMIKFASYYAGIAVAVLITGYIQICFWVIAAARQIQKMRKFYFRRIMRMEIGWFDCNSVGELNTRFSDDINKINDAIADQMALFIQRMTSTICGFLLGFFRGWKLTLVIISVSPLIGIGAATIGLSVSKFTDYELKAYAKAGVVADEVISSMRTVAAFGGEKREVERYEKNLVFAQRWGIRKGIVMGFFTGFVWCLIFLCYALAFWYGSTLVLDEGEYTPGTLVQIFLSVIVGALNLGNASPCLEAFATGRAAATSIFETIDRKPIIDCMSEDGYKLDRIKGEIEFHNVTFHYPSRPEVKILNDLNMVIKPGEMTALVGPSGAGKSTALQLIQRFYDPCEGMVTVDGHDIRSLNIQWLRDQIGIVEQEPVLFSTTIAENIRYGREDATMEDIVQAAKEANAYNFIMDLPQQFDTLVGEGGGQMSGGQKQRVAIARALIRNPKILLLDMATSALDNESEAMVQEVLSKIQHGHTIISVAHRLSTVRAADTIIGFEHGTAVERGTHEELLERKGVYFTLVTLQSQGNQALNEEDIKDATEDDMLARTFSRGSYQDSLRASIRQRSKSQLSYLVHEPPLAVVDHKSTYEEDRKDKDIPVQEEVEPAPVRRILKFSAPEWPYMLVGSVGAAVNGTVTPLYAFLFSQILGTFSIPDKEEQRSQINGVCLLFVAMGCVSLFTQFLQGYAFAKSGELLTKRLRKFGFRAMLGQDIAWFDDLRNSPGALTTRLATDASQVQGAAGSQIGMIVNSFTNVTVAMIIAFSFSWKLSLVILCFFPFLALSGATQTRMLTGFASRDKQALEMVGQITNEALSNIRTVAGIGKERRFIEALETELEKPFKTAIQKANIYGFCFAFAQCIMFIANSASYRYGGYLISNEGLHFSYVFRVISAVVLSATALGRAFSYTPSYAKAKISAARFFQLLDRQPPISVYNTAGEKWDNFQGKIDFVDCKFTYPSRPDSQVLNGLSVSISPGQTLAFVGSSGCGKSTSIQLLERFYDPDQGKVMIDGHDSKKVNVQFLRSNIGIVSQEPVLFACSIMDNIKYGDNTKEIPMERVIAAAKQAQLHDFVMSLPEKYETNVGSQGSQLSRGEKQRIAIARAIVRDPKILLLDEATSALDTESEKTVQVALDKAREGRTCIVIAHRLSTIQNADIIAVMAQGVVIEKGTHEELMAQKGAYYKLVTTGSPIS
Kappa-type opioid receptor, sequence (P41145 whole entry): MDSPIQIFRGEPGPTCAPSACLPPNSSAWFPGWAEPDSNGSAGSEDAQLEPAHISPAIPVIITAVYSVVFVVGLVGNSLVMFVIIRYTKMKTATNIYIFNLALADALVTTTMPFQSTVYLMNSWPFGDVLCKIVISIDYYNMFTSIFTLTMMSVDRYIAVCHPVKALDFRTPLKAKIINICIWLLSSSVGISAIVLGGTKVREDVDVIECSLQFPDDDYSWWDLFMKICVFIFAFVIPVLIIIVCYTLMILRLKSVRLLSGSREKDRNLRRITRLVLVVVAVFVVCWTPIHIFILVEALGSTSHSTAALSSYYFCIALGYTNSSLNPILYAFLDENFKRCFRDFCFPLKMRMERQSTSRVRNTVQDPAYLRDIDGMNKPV
3',5'-cyclic-AMP phosphodiesterase 4D, sequence (Q08499 whole entry): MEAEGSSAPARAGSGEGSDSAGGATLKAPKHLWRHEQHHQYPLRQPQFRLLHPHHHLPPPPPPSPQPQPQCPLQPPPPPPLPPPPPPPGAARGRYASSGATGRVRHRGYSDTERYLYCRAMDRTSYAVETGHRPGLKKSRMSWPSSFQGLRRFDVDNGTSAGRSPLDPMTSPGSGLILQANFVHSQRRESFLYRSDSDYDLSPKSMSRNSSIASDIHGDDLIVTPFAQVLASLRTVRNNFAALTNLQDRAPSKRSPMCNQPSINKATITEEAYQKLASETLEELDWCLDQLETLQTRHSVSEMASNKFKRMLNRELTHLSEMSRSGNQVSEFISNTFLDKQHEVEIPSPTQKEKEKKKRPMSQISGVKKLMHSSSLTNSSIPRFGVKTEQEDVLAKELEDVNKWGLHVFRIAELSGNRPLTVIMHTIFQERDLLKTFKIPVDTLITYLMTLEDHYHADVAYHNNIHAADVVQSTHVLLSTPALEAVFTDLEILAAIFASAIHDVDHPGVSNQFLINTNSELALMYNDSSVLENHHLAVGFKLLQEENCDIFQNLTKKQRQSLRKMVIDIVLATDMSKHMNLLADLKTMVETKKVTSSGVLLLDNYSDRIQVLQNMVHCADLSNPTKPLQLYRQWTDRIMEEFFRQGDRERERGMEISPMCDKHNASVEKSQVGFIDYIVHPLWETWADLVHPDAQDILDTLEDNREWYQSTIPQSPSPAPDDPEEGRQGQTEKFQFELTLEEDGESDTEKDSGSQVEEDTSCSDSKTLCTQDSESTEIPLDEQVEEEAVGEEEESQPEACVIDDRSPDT
Gamma-aminobutyric acid receptor subunit alpha-1, sequence (P62813 whole entry): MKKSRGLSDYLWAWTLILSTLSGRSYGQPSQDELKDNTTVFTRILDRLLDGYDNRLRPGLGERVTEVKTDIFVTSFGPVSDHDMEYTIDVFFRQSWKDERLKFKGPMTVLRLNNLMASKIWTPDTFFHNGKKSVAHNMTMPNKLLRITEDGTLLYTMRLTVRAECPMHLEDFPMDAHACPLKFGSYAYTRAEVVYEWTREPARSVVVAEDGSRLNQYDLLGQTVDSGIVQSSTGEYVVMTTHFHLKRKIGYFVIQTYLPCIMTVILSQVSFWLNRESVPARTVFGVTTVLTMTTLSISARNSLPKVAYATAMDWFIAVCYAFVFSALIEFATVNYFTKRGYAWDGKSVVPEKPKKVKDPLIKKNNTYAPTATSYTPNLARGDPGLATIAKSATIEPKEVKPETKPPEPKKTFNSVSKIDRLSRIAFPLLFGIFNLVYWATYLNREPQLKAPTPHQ

For the compound `CCOc1nc2cccc(C(=O)O)c2n1Cc1ccc(-c2ccccc2-c2nnn[nH]2)cc1`, the AC50 in test [1] was > 10 µM; in test [2], > 30 µM; in [3] it was > 30 µM; in test [4] it was 100 µM; in [5] it was > 10 µM; in [6], > 10 µM. Further, the AC50 in test [7] is > 10 µM; in [8], > 30 µM; in test [9], > 30 µM.

On to `CCOc1cc([C@@H](CS(C)(=O)=O)N2C(=O)c3cccc(NC(C)=O)c3C2=O)ccc1OC`, for which the half-maximal activity concentration (AC50) was > 30 µM in test [2], > 30 µM in test [3], 139 µM in test [4] and > 30 µM in test [8].

As to `CC(=O)Nc1ccc(CC(=O)O)cc1` [ACTARIT], the AC50 was > 30 µM in test [1]; > 30 µM in test [2]; > 30 µM in [3]; > 300 µM in [4]; > 30 µM in test [5]; > 30 µM in test [6]. Besides, the AC50 in [7], in [8] and in test [9] was > 30 µM in each case.

For `CC1(C)S[C@@H]2[C@H](NC(=O)C(C(=O)O)c3ccccc3)C(=O)N2[C@H]1C(=O)O` (stereo partly drawn) [CARBENICILLIN], the AC50 in [1] is > 30 µM; in [2], > 30 µM; in test [3], > 30 µM; in test [4], 210 µM; in test [6] it was > 30 µM; in [7], > 30 µM. Moreover, the AC50 in test [8] and in [9] was > 30 µM in each case.

Consider `Cc1nnc(SCC2=C(C(=O)O)N3C(=O)[C@@H](NC(=O)Cn4cnnn4)[C@H]3SC2)s1` [CEFAZOLIN], for which the AC50 was > 30 µM in test [1]; > 300 µM in test [2]; > 300 µM in test [3]; > 300 µM in test [4]; > 30 µM in [6]; > 30 µM in test [7]. Besides, the AC50 in test [8] and in test [9] was > 300 µM throughout.

Consider `CC=CC1=C(C(=O)O)N2C(=O)[C@@H](NC(=O)[C@H](N)c3ccc(O)cc3)[C@H]2SC1` [CEFPROZIL], for which the AC50 was > 30 µM in test [1]; > 30 µM in [2]; > 300 µM in test [4]; > 30 µM in test [5]; > 30 µM in test [6]; > 30 µM in [7]. For the same compound, the AC50 in [8] and in test [9] was > 30 µM in each case.

Consider `CC(C)(O/N=C(\C(=O)N[C@@H]1C(=O)N2C(C(=O)[O-])=C(C[n+]3ccccc3)CS[C@H]12)c1csc(N)n1)C(=O)O` [CEFTAZIDIME], for which the AC50 in test [1] was > 30 µM; in test [2], > 300 µM; in [3] it was > 300 µM; in [4] it was > 300 µM; in test [6], > 30 µM; in [7], > 30 µM. Further, the AC50 in test [8] and in test [9] was > 300 µM throughout.

Take `Clc1ccc(Cn2c(CN3CCCC3)nc3ccccc32)cc1` [CLEMIZOLE]: the AC50 in test [2] was > 30 µM; in [3] it was > 30 µM; in [4], 29 µM; in test [8] it was > 10 µM; in test [9], 28 µM.

As for `Cc1nc(Nc2ncc(C(=O)Nc3c(C)cccc3Cl)s2)cc(N2CCN(CCO)CC2)n1` [DASATINIB], the AC50 is > 10 µM in test [1]; 19 µM in [2]; > 30 µM in test [3]; 22 µM in [4]; > 30 µM in [6]; > 30 µM in [7]. Also, the AC50 is > 10 µM in [8] and 28 µM in [9].

With `CC(C)Cc1ccc([C@H](C)C(=O)O)cc1` [DEXIBUPROFEN], the AC50 was > 30 µM in [2]; > 30 µM in test [3]; 188 µM in [4]; > 30 µM in [8]; > 30 µM in test [9].

As for `CNC[C@H](O)c1ccc(O)c(O)c1` [EPINEPHRINE], the AC50 in test [3] was > 30 µM; in test [4], > 300 µM; in test [9], > 30 µM.

In the case of `Cc1onc(-c2c(F)cccc2Cl)c1C(=O)N[C@@H]1C(=O)N2[C@@H]1SC(C)(C)[C@@H]2C(=O)O` [FLOXACILLIN], the AC50 in [2] was > 30 µM; in test [3], > 30 µM; in [4], 50 µM; in [8], > 30 µM; in test [9], > 30 µM.

For the compound `COc1cc(C(C)=O)ccc1OCCCN1CCC(c2noc3cc(F)ccc23)CC1` [ILOPERIDONE], the half-maximal activity concentration (AC50) in test [1] was > 10 µM; in test [2], 0.018 µM; in test [3], > 30 µM; in [4] it was 40 µM; in test [7] it was 9.33 µM; in [8], 0.45 µM. Also, the AC50 in [9] is > 30 µM.

As to `CNC(=C[N+](=O)[O-])NCCSCc1csc(CN(C)C)n1` [NIZATIDINE], the AC50 in [1] is > 10 µM; in [2], > 10 µM; in test [4], > 300 µM; in [5] it was > 10 µM; in test [6], > 10 µM; in test [8], > 10 µM. For the same compound, the AC50 in test [9] is > 30 µM.

As for `CC(CN1c2ccccc2Sc2ccccc21)N(C)C` (stereo not drawn) [PROMETHAZINE], the concentration at half-maximal activity (AC50) in [2] was 3 µM; in test [3] it was > 30 µM; in [4] it was > 300 µM; in test [5] it was > 10 µM; in test [6] it was > 30 µM; in test [7], > 30 µM. Further, in test [9], the AC50 was > 30 µM.

With `CCCc1cc(=O)[nH]c(=S)[nH]1` [PROPYLTHIOURACIL], the AC50 in test [1] was > 10 µM; in [2] it was > 10 µM; in test [4], > 300 µM; in test [5], > 10 µM; in test [6] it was > 10 µM; in test [8] it was > 10 µM. Besides, in test [9], the AC50 is > 30 µM.

As for `S=P(N1CC1)(N1CC1)N1CC1` [THIOTEPA], the AC50 is 4.4 µM in test [2]; > 30 µM in test [3]; 83 µM in test [4]; 14 µM in [8]; > 30 µM in [9].

For the compound `COc1cc(C(=O)NS(=O)(=O)c2ccccc2C)ccc1Cc1cn(C)c2ccc(NC(=O)OC3CCCC3)cc12` [ZAFIRLUKAST], the AC50 in test [1] is 6.32 µM; in test [4] it was 2.28 µM; in test [5] it was > 10 µM; in [6] it was > 10 µM; in [9], 5.4 µM.

The values are drawn from ChEMBL document CHEMBL5291721, “A preclinical secondary pharmacology resource illuminates target-adverse drug reaction associations of marketed drugs” (Nat Commun, 2023).
